Test results as given in patent US20110318302A1, “Cancer Treatment” (priority 2009, published 2011).

System: human renal cancer cell line Caki-1
Experiment: Caki-1 tumour mouse model, single and combination therapy (tumour volume)
Assay type: in vivo, BALB/c nude mice
Conditions: single agent; s.c. Caki-1 tumours; F8-IL2 20 μg i.v. 3x every 3rd day; sorafenib or sunitinib 60 mg/kg p.o. 7 days; huIFNa2b/muIFNa1 10.000 IU/10.000 IU s.c. 3x; two treatment cycles (days 11-17, 37-43)
Protocol: For the combination therapy, the human renal cancer cell line Caki-1 (clear cell carcinoma from kidney; ATCC) was cultured in DMEM containing 10% fetal bovine serum and 2 mM L-glutamine (all Invitrogen).
Female BALE/c nude mice were obtained from Charles River Laboratories. All experiments were performed according to Swiss regulations and under a project license granted by the Veterinäramt des Kantons Zürich.
Sorafenib tosylate (Nexavar, Bayer Schering) and sunitinib malate (Sutent, Pfizer) were obtained in the commercially available forms of 200 mg tablets and 50 mg capsules, respectively. The total tablet weight of sorafenib is 350 mg and an index of 1.75 was used to keep the molarity in terms of active compound. Sorafenib tablets were pulverized with mortar and pestle and kept from light in a desiccator. For in vivo administration, pulverized sorafenib was dissolved in a solution of CremophorEL:Ethanol:H2O (12.5%:12.5%:75%). The content of a sunitinib malate capsule was 167 mg and a correction factor of 3.3 was used for molarity adjustment. […]
Mice were monitored daily and tumor volumes were measured three times per week with a digital caliper using the following formula: volume=length×width^2×0.5. […] Tumor volumes are expressed as mean±SE (standard error). […]

## CNC(=O)c1cc(Oc2ccc(NC(=O)Nc3ccc(Cl)c(C(F)(F)F)c3)cc2)ccn1 [Sorafenib]
  tumour burden (tumour volume) versus PBS control: little or no effect on tumour burden
